Among the data in PubChem BioAssay (NCI) are GI50 and TGI values, retold here.

Common to all, as to assay: inhibition of tumour cell growth, NCI panel, 48 h
For assay [1], the system named is 786-0 renal.
In assay [2] the test system is DU-145 prostate.
Assay [3] deals with HCC-2998 colon.
Assay [4] deals with HT29 colon.
Assay [5] deals with K-562 leukemia.
The subject of assay [6] is LOX IMVI melanoma.
Assay [7] has as its system M14 melanoma.
Assay [8] relates to RXF 393 renal.
The test system of assay [9] is SR leukemia.
Assay [10] concerns U251 CNS.

Structures are written as SMILES.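 48-hour exposure; five concentrations; linearly interpolated endpoints. The concentration for 50% growth inhibition is given as GI50. TGI denotes the concentration required for complete inhibition of growth.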

For `COc1ccc(C[C@H]2C[C@@H](O)[C@@H](C)C/C=C/Cc3cccc(O)c3C(=O)O2)cn1`, the GI50 in [1] was 18 µM; in [2] it was 27.7 µM; in assay [3], 17.4 µM; in [4], 31 µM; in assay [5], 12.2 µM; in assay [6] it was 19.1 µM. Also, the GI50 in assay [7] was 18.7 µM; in assay [8], 30.5 µM; in assay [9] it was 7.44 µM; in assay [10], 17.9 µM. The TGI was 77.7 µM in assay [1]; greater than 100 µM in [2]; 44.8 µM in assay [3]; greater than 100 µM in [4]; 28.6 µM in assay [5]; 37.7 µM in assay [6]. The TGI in [7] is 36.6 µM; in assay [8], greater than 100 µM; in assay [9], 33.7 µM; in [10] it was 36.1 µM.

`N#CC1c2ccccc2-c2ccccc2N1C(=O)c1ccccc1` (configuration not stated): the GI50 in [1] is 3.53 µM; in assay [2], 1.72 µM; in assay [3], 2.72 µM; in [4] it was 1.1 µM; in [5], 1.04 µM; in assay [6] it was 2.81 µM. For the same molecule, the GI50 in [7] is 1.47 µM; in assay [8] it was 0.913 µM; in assay [9], 2.92 µM; in assay [10], 2.68 µM. The TGI in assay [1] is greater than 88.1 µM; in assay [2], 4.21 µM; in assay [3], 22.2 µM; in assay [4] it was greater than 25.3 µM; in assay [6], greater than 94.3 µM; in [7], 7.1 µM. Also, the TGI in assay [8] is 13.2 µM; in assay [10], greater than 46.7 µM.

For `CC(CC(=O)O)(CC(=O)O)C(=O)O`, the TGI in [1], in [2], in assay [3], in assay [4], in assay [5] and in assay [6] was greater than 100 µM each time. In addition, the TGI in assay [7], in assay [8], in assay [9] and in assay [10] was greater than 100 µM throughout.

Take `CCCC/C(=N\N=C(N)N)c1ccc(F)cc1`: the GI50 in assay [1] was 3.93 µM; in [2] it was 3.89 µM; in [3] it was 2.77 µM; in assay [4] it was 2.23 µM; in [5], 0.469 µM; in assay [6], 1.33 µM. The GI50 is 2.35 µM in assay [7], 2.04 µM in [8], 0.481 µM in assay [9] and 2.36 µM in [10]. The TGI in [1] was found to be 16.2 µM; in [2], 14.7 µM; in assay [3], 11 µM; in assay [5], 11.2 µM; in [6] it was 13.5 µM; in assay [7], 10.4 µM. Moreover, the figures for the TGI in [8], in assay [9] and in assay [10] were 5.81 µM, 11.9 µM and 10.2 µM, respectively.

In the case of `COc1ccc(S(=O)(=O)N/N=C/C(=O)O)cc1`, the TGI in assay [1] is 971 µM; in assay [2], 843 µM; in [3], greater than 1250 µM; in assay [4] it was greater than 580 µM; in assay [5] it was greater than 1170 µM; in assay [6] it was 733 µM. The TGI in [7] was greater than 1250 µM; in assay [8], 1150 µM; in assay [9], 603 µM; in [10], 1200 µM.

As to `Cc1ccc(NCSc2ccc(Cl)cc2)cc1`, the GI50 in assay [1] is 6.53 µM; in assay [2] it was greater than 100 µM; in [3], greater than 100 µM; in assay [4] it was greater than 100 µM; in assay [5], greater than 100 µM; in [6], greater than 100 µM. For the same molecule, the GI50 was 77.1 µM in assay [7], 30.4 µM in [8], greater than 100 µM in assay [9] and 17.8 µM in [10]. The TGI in assay [1], in assay [2], in assay [3], in assay [4], in assay [5] and in assay [6] was greater than 100 µM in each case. The TGI in [7], in assay [8], in assay [9] and in [10] was greater than 100 µM in each case.

With `O=c1oc(-c2ccc(O)c(O)c2)cc2cc(O)cc(O)c12`, the GI50 in assay [1] is 39.6 µM; in assay [2], 32.4 µM; in assay [3], 36.6 µM; in [4] it was 71.5 µM; in assay [5], 41.6 µM; in assay [6], 60.8 µM. Moreover, the GI50 is 33.2 µM in assay [7], 35.9 µM in [8], 8.26 µM in assay [9] and 48.5 µM in assay [10]. The TGI was greater than 100 µM in [1]; greater than 100 µM in [2]; 57.7 µM in assay [3]; greater than 100 µM in assay [4]; greater than 100 µM in [5]; greater than 100 µM in assay [6]. The TGI in assay [7] was 93.9 µM; in assay [8], greater than 100 µM; in assay [9], greater than 100 µM; in assay [10] it was greater than 100 µM.

Consider `O=C1OC(c2ccc(O)cc2)(c2ccc(O)cc2)c2cccc3cccc1c23`, for which the GI50 in assay [1] is 20.2 µM; in assay [2], 17.2 µM; in assay [3], 15.8 µM; in [4], 19.4 µM; in [5], 15.7 µM; in assay [6] it was 15.2 µM. For the same molecule, the GI50 in [7] is 16.4 µM; in assay [8], 14.6 µM; in [9], 10.8 µM; in assay [10], 15.6 µM. The TGI was 41.8 µM in assay [1]; 31.6 µM in assay [2]; 32.5 µM in assay [3]; 39.6 µM in assay [4]; 61.3 µM in assay [5]; 34.7 µM in assay [6]. Besides, the TGI in assay [7] was found to be 33 µM; in assay [8] it was 29.9 µM; in assay [9], 38.3 µM; in assay [10], 30.3 µM.
